Source: patent US20120196935A1, “METHODS FOR DETECTING AUTODIGESTION” (THE REGENTS OF THE UNIVERSITY OF CALIFORNIA, priority 2009, published 2012)

System: experimental rats in hemorrhagic shock
Test: hemorrhagic shock in rats with blockage of digestive enzymes in the lumen of the intestine
Assay type: in vivo
Details: hemorrhagic shock (two hour reduction of blood pressure), inhibitor infused into the lumen of the intestine
Description: Fetid organic material was released from animals subject to autodigestion by pancreatic enzymes, but not from those that were not subject to autodigestion. Non-surviving animals uniformly released fetid organic material, while survivors produced dramatically lower levels. For example, animals with blockage of digestive enzymes in the lumen of the intestine (by infusion of pancreatic serine protease inhibitors, such as cyclokapron) in hemorrhagic shock had lower levels of substances such as putrescine, cadaverine, methional, and transthyretin.

NC[C@H]1CC[C@H](C(=O)O)CC1 [cyclokapron] was tested, and the “levels of substances such as putrescine, cadaverine, methional, and transthyretin” value was “lower levels”.
